{"source": "patent US20140205681A1", "about": "“HYDROGEN-BOND SURROGATE PEPTIDES AND PEPTIDOMIMETICS FOR p53 REACTIVATION” (New York University, priority 2013, published 2014)", "key": {"UMSCC47 cells [1]": {"system": "UMSCC47 cells", "assay": "Tumorsphere formation", "format": "cell-based, human", "settings": "overexpression of CH1, UMSCC47 cells", "method": "Cells were harvested and seeded in a serum-free defined medium consisting of KSF medium supplemented with epidermal growth factor, basic fibroblast growth factor, insulin, and hydrocortisone in low-attachment plates (Corning Incorporated, Corning, N.Y.) for tumorspheres. Tumorsphere formation efficiency was calculated as the number of tumorspheres ([…] in diameter) formed in 7 days divided by the original number of cells seeded. Tumorsphere diameter was measured using NIS-Elements software."}, "UMSCC47 cells [2]": {"system": "UMSCC47 cells", "assay": "ALDH (ALDEFLUOR) and CD44 (FACS) cancer initiating cell markers", "format": "cell-based, human", "method": "Cells were assessed for ALDH activity using the ALDEFLUOR kit according to the manufacturer's protocol (Stem Cell Technologies, British Columbia, Canada). Cells were suspended in ALDEFLUOR assay buffer containing ALDH substrate (bidipy-aminoacetaldehyde, 1 μM per 1×10^6 cells) and incubated for 40 minutes at 37° C. For each experiment, a sample of cells was incubated with 50 mM of diethylaminobenzaldehyde (DEAB), a specific ALDH inhibitor, to serve as the negative control. For CD44 expression, cells were harvested and resuspened in incubation buffer with PE-CD44 antibody (Abcam) or mouse PE-IgG (Abcam) for 50 minutes on ice. Suspensions were centrifuged at 300×g for 5 minutes at 4° C. and resuspend in 0.5 mL of 1% paraformaldehyde solution for analysis. Fluorescence activated cell sorting (FACS) analyses were performed using BD FACS Calibur at The Ohio State University Comprehensive Cancer Center Analytical Cytometry Core."}, "MDM2-p300": {"target": "T1, MDM2-p300 (Homo sapiens, UniProt Q09472)", "T1 construct": "Cell lysates were extracted, immunoprecipitated with anti-p300 antibody, and immunoblotted with anti-MDM2; endogenous in cells; host or cells: UMSCC74A (HPV-negative, p53 wildtype HNSCC)", "T1 sequence (Q09472 whole entry)": "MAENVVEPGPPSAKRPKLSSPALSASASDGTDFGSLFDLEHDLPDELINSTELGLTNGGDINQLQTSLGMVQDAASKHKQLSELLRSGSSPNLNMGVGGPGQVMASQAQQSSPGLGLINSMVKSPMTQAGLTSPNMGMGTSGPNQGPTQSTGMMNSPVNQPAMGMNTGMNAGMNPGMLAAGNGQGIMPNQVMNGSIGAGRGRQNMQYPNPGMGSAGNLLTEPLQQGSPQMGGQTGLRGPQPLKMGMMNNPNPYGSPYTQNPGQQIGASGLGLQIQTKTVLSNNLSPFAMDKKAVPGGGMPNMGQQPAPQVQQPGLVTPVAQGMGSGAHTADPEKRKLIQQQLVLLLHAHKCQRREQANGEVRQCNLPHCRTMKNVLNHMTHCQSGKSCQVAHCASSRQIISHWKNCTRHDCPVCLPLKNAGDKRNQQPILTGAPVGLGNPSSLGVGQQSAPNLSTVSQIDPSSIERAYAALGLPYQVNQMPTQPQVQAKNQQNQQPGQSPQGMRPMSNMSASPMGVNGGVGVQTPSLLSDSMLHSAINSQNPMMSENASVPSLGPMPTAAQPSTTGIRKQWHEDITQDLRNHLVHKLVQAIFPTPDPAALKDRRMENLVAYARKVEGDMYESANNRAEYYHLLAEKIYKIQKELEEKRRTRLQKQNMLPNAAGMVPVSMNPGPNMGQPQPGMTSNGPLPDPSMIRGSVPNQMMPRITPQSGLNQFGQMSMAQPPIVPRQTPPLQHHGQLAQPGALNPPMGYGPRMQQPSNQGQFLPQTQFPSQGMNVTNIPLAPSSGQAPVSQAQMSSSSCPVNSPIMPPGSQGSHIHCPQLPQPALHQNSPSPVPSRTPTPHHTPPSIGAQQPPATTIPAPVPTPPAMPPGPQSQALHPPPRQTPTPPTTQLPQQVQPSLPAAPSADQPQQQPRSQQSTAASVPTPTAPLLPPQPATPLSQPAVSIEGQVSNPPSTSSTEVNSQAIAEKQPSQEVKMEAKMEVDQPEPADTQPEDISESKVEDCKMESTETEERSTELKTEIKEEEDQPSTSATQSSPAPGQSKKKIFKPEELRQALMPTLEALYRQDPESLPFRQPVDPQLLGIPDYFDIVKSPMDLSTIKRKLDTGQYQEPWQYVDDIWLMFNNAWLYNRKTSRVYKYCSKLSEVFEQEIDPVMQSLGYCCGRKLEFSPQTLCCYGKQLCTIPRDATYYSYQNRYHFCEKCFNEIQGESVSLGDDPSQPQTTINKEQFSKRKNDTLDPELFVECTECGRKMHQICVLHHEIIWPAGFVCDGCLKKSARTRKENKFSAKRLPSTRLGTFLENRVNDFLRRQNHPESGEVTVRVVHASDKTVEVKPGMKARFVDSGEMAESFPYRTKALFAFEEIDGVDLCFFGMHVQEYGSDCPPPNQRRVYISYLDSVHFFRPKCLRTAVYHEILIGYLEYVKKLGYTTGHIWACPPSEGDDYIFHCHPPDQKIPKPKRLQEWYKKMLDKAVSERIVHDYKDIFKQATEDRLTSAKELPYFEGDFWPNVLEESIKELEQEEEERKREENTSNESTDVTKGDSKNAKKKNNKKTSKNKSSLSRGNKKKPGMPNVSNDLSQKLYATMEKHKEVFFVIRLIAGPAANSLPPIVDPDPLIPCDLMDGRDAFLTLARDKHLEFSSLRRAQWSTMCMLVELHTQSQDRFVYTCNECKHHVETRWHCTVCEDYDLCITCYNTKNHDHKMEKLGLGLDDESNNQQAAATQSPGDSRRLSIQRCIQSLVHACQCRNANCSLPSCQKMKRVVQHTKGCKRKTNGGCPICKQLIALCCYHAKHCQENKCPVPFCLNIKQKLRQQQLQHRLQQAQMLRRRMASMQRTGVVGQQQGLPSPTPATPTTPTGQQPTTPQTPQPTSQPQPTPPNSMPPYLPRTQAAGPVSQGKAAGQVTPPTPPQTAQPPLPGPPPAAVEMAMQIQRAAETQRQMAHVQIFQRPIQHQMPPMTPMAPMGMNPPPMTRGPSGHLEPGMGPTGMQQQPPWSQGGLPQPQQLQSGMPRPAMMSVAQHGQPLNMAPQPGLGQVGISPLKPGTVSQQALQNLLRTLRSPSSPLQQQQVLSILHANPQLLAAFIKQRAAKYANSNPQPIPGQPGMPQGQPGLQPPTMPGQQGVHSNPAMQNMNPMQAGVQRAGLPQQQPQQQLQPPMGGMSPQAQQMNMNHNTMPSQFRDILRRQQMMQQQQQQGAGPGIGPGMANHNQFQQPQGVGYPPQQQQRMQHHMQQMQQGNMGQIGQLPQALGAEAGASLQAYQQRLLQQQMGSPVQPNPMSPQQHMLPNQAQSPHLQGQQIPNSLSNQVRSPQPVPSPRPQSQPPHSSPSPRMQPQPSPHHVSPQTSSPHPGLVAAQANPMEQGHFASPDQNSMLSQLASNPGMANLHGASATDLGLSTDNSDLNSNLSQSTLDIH", "assay": "Immunoprecipitation of MDM2-p300 association", "format": "cell-based", "settings": "introduction of CH1, UMSCC74A cells"}, "p53 [3]": {"system": "p53", "assay": "p53 transcriptional activity (Cignal p53 Firefly/Renilla luciferase reporter)", "format": "cell-based, human", "method": "Cells were transfected with 100 ng of Cignal p53 reporter (SABiosciences, Valencia, Calif.) using Lipofectamine 2000. Cignal p53 reporter contains tandem repeats of the p53 consensus transcriptional response element. After 48 hours, cells were washed with cold PBS, lysed in passive lysis buffer (Promega), and measured for Firefly/Renilla dual luciferase activities in a luminometer using the Dual-Light System (Applied Biosystems, Foster City, Calif.). […] to control for transfection efficiency. A modification to the protocol was used for compound treatment. UMSCC47 cells were transfected with 100 ng of Cignal p53 reporter. After 24 hours, cells were treated with vehicle, CH1iB (10 μM), cis-platinum (10 μM), or combination of CH1iB (10 μM) and cis-platinum (10 μM) and measured for Firefly/Renilla dual luciferase activities 24 hours post-treatment."}, "HPV16 E6-p300": {"target": "T2, HPV16 E6-p300 (Homo sapiens, UniProt Q09472)", "T2 construct": "Cell lysates were extracted, immunoprecipitated with anti-p300 antibody, and immunoblotted with anti-E6 antibody; endogenous in cells; host or cells: UMSCC47 (HPV16-positive HNSCC)", "T2 sequence (Q09472 whole entry)": "as above", "assay": "Immunoprecipitation of HPV16 E6-p300 association", "format": "cell-based", "settings": "exogenous CH1; UMSCC47 and UPCI:SCC090 cells", "method": "Cells were lysed with NP buffer [50 mM Tris (pH 8.0), 150 mM NaCl, 0.5% deoxycholate, 0.1% SDS, and 1.0% NP-40] containing 1× Protease Inhibitor Cocktail (Roche, Switzerland) at 4° C. with gentle rocking for 15 min. The supernatant was pre-cleared to block nonspecific binding with 50 μL protein A/G Agarose beads (Pierce Biotechnology) that had been pre-washed with NP buffer before use. Equal amounts of anti-E6 antibody (Abcam), anti-p300 antibody (Millipore), or IgG antibody (Cell Signaling) were added to the respective samples. After 4 hours incubation at 4° C., 50 μL pre-washed protein A/G-agarose beads were added to each tube and immunoprecipitation was performed by rocking overnight at 4° C. The immunoprecipitated complexes were washed with NP buffer and then eluted using 2×SDS sample buffer. Eluted sample and 10% of input were resolved by SDS-PAGE for Western blot analysis with anti-E6, anti-p300, or anti-V5 antibodies."}, "UMSCC74A cells [4]": {"system": "UMSCC74A cells", "assay": "Cell proliferation (MTT)", "format": "cell-based, human", "settings": "overexpression of CH1, UMSCC74A cells", "method": "(§1) Cell proliferation was assessed using the MTT reagent (Roche Molecular Biochemicals, Nutley, N.J.) to detect metabolic active cells. Absorbance was measured at 570 nm in the Spectra Max 190 ELISA reader (Molecular Devices, Sunnyvale, Calif.) after overnight incubation. For clonogenic survival, 200 cells per well were plated in complete growth media and allowed to grow until visible colonies were formed (14 days). Cell colonies were fixed with cold methanol, stained with 0.25% crystal violet in 25% methanol, washed, and air dried. For apoptosis, cells were harvested, washed with cold PBS, and co-stained with Annexin V and propidium iodide according to the manufacturer's protocol (ApoAlert Annexin V-FITC Apoptosis Kit; Clontech). Apoptotic cells were analyzed using BD FACS Calibur (BD Biosciences Corporation, Franklin Lakes, N.J.) at The Ohio State University Comprehensive Cancer Center Analytical Cytometry Core."}, "UPCI:SCC090 cells [5]": {"system": "UPCI:SCC090 cells", "assay": "Cell proliferation (MTT)", "format": "cell-based, human", "settings": "UPCI:SCC090/CH1 cells", "method": "as §1"}, "UMSCC47 cells [6]": {"system": "UMSCC47 cells", "assay": "Cell proliferation (MTT)", "format": "cell-based, human", "method": "as §1"}, "UMSCC74A cells [7]": {"system": "UMSCC74A cells", "assay": "Clonogenic survival (crystal violet)", "format": "cell-based, human", "settings": "overexpression of CH1, UMSCC74A cells", "method": "as §1"}, "UPCI:SCC090 cells [8]": {"system": "UPCI:SCC090 cells", "assay": "Clonogenic survival (crystal violet)", "format": "cell-based, human", "settings": "UPCI:SCC090/CH1 cells", "method": "as §1"}, "UMSCC47 cells [9]": {"system": "UMSCC47 cells", "assay": "Clonogenic survival (crystal violet)", "format": "cell-based, human", "settings": "UMSCC47/CH1 cells", "method": "as §1"}, "UMSCC74A cells [10]": {"system": "UMSCC74A cells", "assay": "Apoptosis (Annexin V FACS)", "format": "cell-based, human", "settings": "overexpression of CH1, UMSCC74A cells", "method": "as §1"}, "UPCI:SCC090 cells [11]": {"system": "UPCI:SCC090 cells", "assay": "Apoptosis (Annexin V FACS)", "format": "cell-based, human", "settings": "CH1 overexpression", "method": "as §1"}, "UMSCC47 cells [12]": {"system": "UMSCC47 cells", "assay": "Apoptosis (Annexin V FACS)", "format": "cell-based, human", "settings": "CH1 overexpression", "method": "as §1"}, "[13]": {"system": "p300, p53, p21, miR-34a, miR-200c", "assay": "Quantitative real-time PCR of p300, p53, p21, miR-34a and miR-200c expression", "format": "cell-based, human", "method": "Cells were extracted for total RNA using the TRIzol® reagent (Invitrogen) or TaqMan PreAmp Cells-to-CT kit (Applied Biosystems). Expression of p300, p53, p21, miR-34a and miR-200c were determined using the Applied Biosystems 7900HT Fast Real-Time PCR System with validated TaqMan gene expression assays (Applied Biosystems). p53, p300, and p21 expression were normalized to GADPH and miR-34a and miR-200c expression were normalized to RNU44 using the ΔΔCt method."}, "p53 [14]": {"system": "p53", "assay": "Western blot of total and acetylated[K382] p53 levels", "format": "cell-based, human", "method": "Whole cell lysates were mixed with Laemmli loading buffer, boiled, separated by SDS-PAGE, and transferred to a nitrocellulose membrane. Subsequently, immunoblot analyses were performed using antibodies specific to V5 (Invitrogen), p53 (sc-126, Santa Cruz Biotechnology, Santa Cruz, Calif.), or acetylated[[…]]-p53 (2525, Cell Signaling Technology). The signal was developed using the SuperSignal Western Blotting Kit (Pierce, Rockford, Ill.)."}, "UMSCC47 cells [15]": {"system": "UMSCC47 cells", "assay": "Tumor incidence and growth in athymic nude mice", "format": "in vivo", "method": "After 3 weeks, tumors were measured once a week using a digital caliper and tumor volumes were calculated using the formula d1×d2×d3×0.5236, where “d” represents the three orthogonal diameters. Tumor growth and incidence were monitored for 49 days following tumor cell implantation."}, "[16]": {"settings": "CH1 overexpression, UMSCC47 cells"}, "[17]": {"settings": "CH1 overexpressing UMSCC47 and UPCI:SCC090 cells"}}, "data": [{"substance": "CH1: CH1 domain of p300 ectopically expressed from pcDNA3.1/CH1 in stably transfected HNSCC cells", "values": [{"measurement": "tumorsphere diameter, reduced by", "setting": "UMSCC47 cells [1]", "result": 25, "unit": "%"}, {"measurement": "tumorsphere formation efficiency, inhibited by", "setting": "UMSCC47 cells [1]", "result": 42, "unit": "%"}, {"measurement": "ALDH^high population, reduced by", "setting": "UMSCC47 cells [2]; [16]", "result": 46, "unit": "%"}, {"measurement": "CD44^high population, reduced by", "setting": "UMSCC47 cells [2]; [16]", "result": 31, "unit": "%"}, {"measurement": "CD44 levels (FACS), reduced by", "setting": "UMSCC47 cells [2]; UMSCC47/CH1 vs UMSCC47/empty cells", "result": 33, "unit": "%"}, {"measurement": "interaction between p300 and MDM2", "setting": "MDM2-p300", "result": "disrupted"}, {"measurement": "p53 transcription activity, elevated by", "setting": "p53 [3]; UMSCC47/CH1 cells vs empty vector", "result": 85, "unit": "%"}, {"measurement": "p53 transcription activity, elevated by", "setting": "p53 [3]; UMSCC74A/CH1 vs UMSCC74A/empty cells", "result": 68, "unit": "%"}, {"measurement": "p53 transcription activity, elevated by", "setting": "p53 [3]; UPCI:SCC090/CH1 cells vs empty vector", "result": 50, "unit": "%"}, {"measurement": "association between E6 and p300", "setting": "HPV16 E6-p300", "result": "reduce the association between E6 and p300"}, {"measurement": "cell proliferation, inhibited by", "setting": "UMSCC74A cells [4]", "result": 48, "unit": "%"}, {"measurement": "cell proliferation, reduced by", "setting": "UPCI:SCC090 cells [5]", "result": 11, "unit": "%"}, {"measurement": "cell proliferation, reduced by", "setting": "UMSCC47 cells [6]; UMSCC47/CH1 cells", "result": 20, "unit": "%"}, {"measurement": "clonogenic survival, inhibited by", "setting": "UMSCC74A cells [7]", "result": 70, "unit": "%"}, {"measurement": "clonogenic survival, reduced by", "setting": "UPCI:SCC090 cells [8]", "result": 58, "unit": "%"}, {"measurement": "clonogenic survival, reduced by", "setting": "UMSCC47 cells [9]", "result": 55, "unit": "%"}, {"measurement": "apoptosis, increased by", "setting": "UMSCC74A cells [10]", "result": 95, "unit": "%"}, {"measurement": "apoptosis, increased by", "setting": "UPCI:SCC090 cells [11]", "result": 27, "unit": "%"}, {"measurement": "apoptosis, increased by", "setting": "UMSCC47 cells [12]", "result": 60, "unit": "%"}, {"measurement": "miR-34a expression, increased by", "setting": "[13]; UMSCC47/CH1 cells", "result": 323, "unit": "%"}, {"measurement": "miR-200c expression, increased by", "setting": "[13]; UMSCC47/CH1 cells", "result": 80, "unit": "%"}, {"measurement": "p21 expression, increased by", "setting": "[13]; UMSCC47/CH1 cells", "result": 114, "unit": "%"}, {"measurement": "miR-34a expression, increased by", "setting": "[13]; UPCI:SCC090/CH1 cells", "result": 134, "unit": "%"}, {"measurement": "miR-200c expression, increased by", "setting": "[13]; UPCI:SCC090/CH1 cells", "result": 49, "unit": "%"}, {"measurement": "p21 expression, increased by", "setting": "[13]; UPCI:SCC090/CH1 cells", "result": 39, "unit": "%"}, {"measurement": "p53 and p300 expression", "setting": "[13]; overexpression of CH1, UMSCC47 and UPCI:SCC090", "result": "no effect"}, {"measurement": "acetylated p53", "setting": "p53 [14]; [17]", "result": "increase"}, {"measurement": "total p53", "setting": "p53 [14]; [17]", "result": "accumulation"}, {"measurement": "total and acetylated p53", "setting": "p53 [14]; ectopic expression of CH1, HPV-negative UMSCC74A cells", "result": "increased"}, {"measurement": "tumor incidence", "setting": "UMSCC47 cells [15]; 3×10^4 UMSCC47/CH1 cells implanted (UMSCC47/empty 50%)", "result": 0, "unit": "%"}, {"measurement": "mean tumor volume", "setting": "UMSCC47 cells [15]; 3×10^5 UMSCC47/CH1 cells implanted (UMSCC47/empty 142 mm^3)", "result": 67, "unit": "mm^3"}, {"measurement": "tumor incidence vs UMSCC47/empty", "setting": "UMSCC47 cells [15]; 3×10^5 cells implanted in flanks, 49 days", "result": "the same"}]}, {"substance": "XELA*RAADQ-NH2 [CH1iB-mut]", "values": [{"measurement": "p53 activity, increase", "setting": "p53 [3]; HPV-positive UMSCC47 cells, 10 μM, 24 hours, vs vehicle", "result": 14, "unit": "%"}, {"measurement": "effect on anti-proliferative efficacy of cis-platinum", "setting": "UMSCC47 cells [6]; UMSCC47 cells, 10 μM with cis-platinum 10 μM", "result": "no effect"}, {"measurement": "cell proliferation, single-agent", "setting": "UMSCC47 cells [6]; UMSCC47 cells, 10 μM, 24-72 hours", "result": "no effect"}]}]}
